From US20080319083A1, “MEDICINE FOR TRANSNASAL ADMINISTRATION” (priority 2006, published 2008)
Where a name gives a salt, the structure may show the parent alone. Read-outs that look alike come from different tables or passages of the source.

How the values were obtained:
[1] = Transnasal administration experiment in closed system, plasma pharmacokinetics (Test Example 1)
Procedure: To 100 μL of plasma was added 300 μL of NH4Cl (pH 9), and the mixture was stirred for 30 seconds. Then, 500 μL of chloroform/2-isopropanol/n-heptane (60/14/26) was added, and the mixture was shaken for 2 minutes and centrifuged (4° C., 15,000 rpm, 5 min).
The chloroform layer (lower layer) obtained by centrifugation was transferred to another microtube, and the solvent was removed with flowing nitrogen. All the solvents were removed, and the extract was dissolved in 100 μL of a buffer used as a mobile phase for HPLC. Then, the solution was dispensed into a glass tube and injected to HPLC in an amount of 30 μL to measure the concentration of milnacipran hydrochloride.
The intravenous maximum plasma concentration (Cmax), maximum plasma concentration time (Tmax), area under the plasma concentration-time curve (AUC) and absorption ratio (F) were calculated. The area under the plasma concentration-time curve (AUC) was calculated from the trapezoid formula AUC represents an integrated value of the concentrations of plasma milnacipran absorbed and transferred to blood.
The obtained data was analyzed based on the nonlinear least-squares method program (algorithm: Damping Gauss-Newton method). AUC, MRT, MAT were derived from moment analysis. Meanwhile, the relative rate of the retention in the nasal cavity was evaluated by Formula (1) below.
A solution of urethane in isotonic sodium chloride solution (dosage 1.0 g/kg, 25 w/v %) was administered intraperitoneally to Wistar male rats, and the rats were anaesthetized: Each rat was fixed on a fixed base in a face-up position, and then the airway and esophagus surgeries was performed on the rat in according to the method of Hirai et. al (J. Pharm. Sci. 69:1411-1413 (1980)) to thereby expose the left and right jugular veins. The solution of milnacipran hydrochloride in isotonic sodium chloride solution was administered to the left the nasal cavity using a microsyringe, the top of which was attached to a silicone tube (dosage 20 mg/kg, concentration 100 mg/mL). Blood was corrected over time from the right jugular using a syringe previously treated with heparin. The blood samples were collected in an amount of 0.2 mL per injection, just 0 minute before transnasal administration, and 5, 10, 20, 30, 60, 90, 120, 180, 240, 300 and 360 minutes after the transnasal administration respectively. The collected blood samples were immediately centrifuged at 4° C. and 15,000 rpm (17,860 g) for 5 minutes, to thereby yield plasma samples (0.1 mL).

[2] = Transnasal administration experiment in opened system, plasma pharmacokinetics (Test Example 1); type: in vivo, Wistar male rats
From the text: AUC, MRT, MAT were derived from moment analysis. […] Each rat was fixed in a face-up position on a fixed base, and the right jugular vein was exposed to insert a catheter. After the nib of the catheter was indwelled in the atrium dextrum, the opened regions of the right jugular vein was sutured together using the medical suture thread with an attached needle (17 mm, angle ½ black nylon 5-0, Matsuda Sutures). After the sufficient recovery period, each rat was used for experiments. To the rats with the jugular vein catheterization, prepared by the above-described “1. […] Blood was collected via catheter over time using an injection syringe previously treated with heparin. […] After recovering from diethylether anesthesia, the rats was placed in gauges.

in vivo = assay: in vivo; set-up: species or system Wistar male rats; conditions: male, Wistar, rat, iv, 20 mg/kg
Procedure: Each rat was fixed in a face-up position on a fixed base, and the left and right jugular veins were exposed to collect blood. The rats underwent an operation of the airway and esophagus to adjust the physiological conditions to the same conditions as those of the intranasal administration test, and the above-prepared isotonic sodium chloride solution containing milnacipran hydrochloride (dosage 20 mg/kg, concentration 20 mg/mL) was administered from the right jugular vein, followed by collection of blood using an injection syringe previously treated with heparin with time in an amount of 200 μL per injection. […] The obtained data was analyzed based on the moment analysis to calculate the area under the plasma concentration-time curve (AUC), mean residence time (MRT), and mean absorption time (MAT). The cumulative absorption profile of milnacipran hydrochloride was calculated by the deconvolution method based on kinetic parameters determined from the intravenous administration test for an input function and based on plasma levels after intraduodenal or intranasal administration for an output function.

[3] = In vivo intranasal administration test of milnacipran hydrochloride (Test Example 2); set-up: species or system Wistar male rats
Procedure: Each rat was fixed in a face-up position on a fixed base and underwent an operation of the airway and esophagus to adjust the physiological conditions to the same conditions as those of the intravenous administration test, to thereby expose the left and right jugular veins. […] An injection syringe previously treated with heparin was used to collect blood from the right jugular vein over time.
The cumulative absorption profile of milnacipran hydrochloride was determined by the deconvolution method using kinetic parameters determined from the intravenous administration test as an input function and plasma levels after transnasal administration as an output function.

[4] = In vivo intravenous administration test of milnacipran hydrochloride (Test Example 2); set-up: species or system Wistar male rats
From the text: Each rat was fixed in a face-up position on a fixed base and underwent an operation of the airway and esophagus, to thereby expose the left and right jugular veins. […]

[5] = In vivo intranasal administration test of milnacipran hydrochloride (Test Example 3); set-up: species or system Wistar male rats; conditions: i.n. 20 mg/kg
Procedure: Each rat was fixed in a face-up position on a fixed base, and the left and right jugular veins were exposed to collect blood. […] The time of intranasal administration was defined as 0 minutes, and blood samples were collected using an injection syringe previously treated with heparin with time in an amount of 200 μL per injection.
The obtained data was analyzed based on the moment analysis to calculate the area under the plasma concentration-time curve (AUC), mean residence time (MRT), and mean absorption time (MAT). The cumulative absorption profile of milnacipran hydrochloride was calculated by the deconvolution method based on kinetic parameters determined from the intravenous administration test for an input function and based on plasma levels after intraduodenal or intranasal administration for an output function.

[6] = In vivo intraduodenal administration test of milnacipran hydrochloride (Test Example 3); set-up: species or system Wistar male rats; conditions: rat
Procedure: Each rat was fixed in a face-up position on a fixed base, and the left and right jugular veins were exposed to collect blood. The abdominal cavity was incised to take the duodenum out, and the downstream portion of the duodenum was ligated, followed by direct administration of the above-prepared isotonic sodium chloride solution containing milnacipran hydrochloride (dosage 20 mg/kg, concentration 20 mg/mL) to the duodenum from the upstream portion. The time of duodenum administration was defined as 0 minutes, and blood samples were collected using an injection syringe previously treated with heparin with time in an amount of 200 μL per injection. […] The obtained data was analyzed based on the moment analysis to calculate the area under the plasma concentration-time curve (AUC), mean residence time (MRT), and mean absorption time (MAT). The cumulative absorption profile of milnacipran hydrochloride was calculated by the deconvolution method based on kinetic parameters determined from the intravenous administration test for an input function and based on plasma levels after intraduodenal or intranasal administration for an output function.

[7] = Evaluation of transfer of milnacipran hydrochloride to central nerve system, CSF concentration (Test Example 4); set-up: species or system Wistar male rats; conditions: in vivo
Procedure: As an indicator of transfer to the central nerve system, the concentration of a drug in a cerebrospinal fluid (CSF) was measured. The same operations and administrations as Test Example 3 (in vivo mucosal absorption experiment) were performed (n=3) for intravenous administration, intraduodenal administration, and intranasal administration. Then, blood was collected with time from the jugular vein, and after a given length of time, CSF was collected. An injection needle previously cut was adhered to a silicon tube to prepare an instrument, the other end of which was connected to a syringe, and after a given length of time following drug administration, a puncture was made ventrally from the top of the back of the head of a rat to a depth of 5 to 6 mm with the top of the injection needle. Then, the syringe was drawn to collect CSF in an amount of about 200 μL in the silicon tube.
The obtained data was analyzed based on the moment analysis to calculate the area under the cerebrospinal fluid concentration-time curve (AUCCSF). The AUCCSF represents an integrated value of concentrations of milnacipran in CFS, absorbed and transferred to the brain. Transfer of a drug from the general circulation to CSF is controlled by permeation through a blood-brain barrier and is greatly affected by the concentration of the drug in blood. Therefore, in order to consider the effect of permeation through a blood-brain barrier, brain transfer was evaluated by comparing ratios of the concentrations in CSF to the protein unbound drug concentration in plasma at the time of collection of CSF. Meanwhile, the brain transfer ratio (Kpu) was calculated from an area under the CSF concentration-time curve, an area under the plasma concentration-time curve, and a plasma protein unbinding ratio (following Formula 3). A significant test was performed based on the Tukey-Kramer multiple comparison. Note that AUCplasma represents an integrated value of the plasma concentrations of milnacipran absorbed and transferred to blood.

[8] = male, Wistar, rat, in vivo, inhaled or intranasal, 20 mg/kg
[9] = male, Wistar, in vivo, inhaled or intranasal, rat plasma, transnasal 20 mg/kg, opened system
[10] = male, Wistar, rat, in vivo, iv, 20 mg/kg
[11] = male, Wistar, in vivo, inhaled or intranasal, rat plasma
[12] = male, Wistar, in vivo, 20 mg/kg
[13] = male, Wistar, rat, iv, 20 mg/kg

Compound: CCN(CC)C(=O)C1(c2ccccc2)CC1CN (racemic) [milnacipran hydrochloride, cis-(±)-2-(aminomethyl)-N,N-diethyl-1-phenyl-cyclopropanecarboxyamide]
- AUC(0-inf) [1, 8]: 8.4 µg·h/mL
- Cmax [1, 8]: 5.12 µg/mL
- Tmax [1, 8]: 0.333 h
- MRT inf ([1]; male, Wistar, rat, in vivo, inhaled or intranasal, 20 mg/kg, MRT∞, rat plasma, transnasal 20 mg/kg, closed system): 1.88 h
- MRT∞ ([1]; rat plasma, transnasal 20 mg/kg, closed system, listed as Control): 1.62 h
- F∞ ([1]; rat, transnasal 20 mg/kg, closed system, vs i.v. 20 mg/kg): 84.9%
- AUC(0-inf) [2, 9]: 6.12 µg·h/mL
- Cmax [2, 9]: 3.04 µg/mL
- MRT inf [2, 9]: 1.77 h
- Tmax [2, 9]: 0.333 h
- Fo/Fc (relative rate of the retention in the nasal cavity) ([2]; male, Wistar, rat, in vivo): 72.8%
- F∞ ([2]; rat, transnasal 20 mg/kg, opened system): 61.9%
- AUC(0-inf) (in vivo): 9.89 µg·h/mL
- MRT inf (in vivo): 1.34 h
- AUC(0-inf) ([3]; male, Wistar, in vivo, inhaled or intranasal, rat plasma, i.n. 10 mg/kg): 4.77 µg·h/mL
- AUC(0-t) ([3]; male, Wistar, in vivo, inhaled or intranasal, rat plasma, i.n. 10 mg/kg, 0 to 7 hours, read-out: AUC0-7 (converted)): 4.38 µg·h/mL
- Tmax ([3]; male, Wistar, in vivo, rat plasma, i.n. 10 mg/kg): 0.333 h
- Cmax ([3]; male, Wistar, in vivo, rat plasma, i.n. 10 mg/kg, 50 mg/mL (Example 5)): 5.27 µg/mL
- F0-7 ([3]; rat, i.n. 10 mg/kg vs i.v. 20 mg/kg, 0 to 7 hours): 90.41%
- AUC(0-inf) [4, 10]: 9.68 µg·h/mL
- AUC(0-t) [4, 10]: 9.43 µg·h/mL
- Vd [4, 10]: 0.123 L
- clearance [4, 10]: 2.69 mL/min
- B ([4]; rat plasma, i.v. 20 mg/kg): 5580.51 ng/mL
- t1/2α ([4]; rat plasma, i.v. 20 mg/kg): 6.221 min
- t1/2β ([4]; rat plasma, i.v. 20 mg/kg): 1.0709 h
- α ([4]; rat plasma, i.v. 20 mg/kg): 0.1114 min⁻¹
- β ([4]; rat plasma, i.v. 20 mg/kg): 0.01079 min⁻¹
- A ([4]; rat plasma, i.v. 20 mg/kg, two-compartment parameter): 7085.09 ng/mL
- V1 ([4]; rat, i.v. 20 mg/kg): 67.74 mL
- V2 ([4]; rat, i.v. 20 mg/kg): 55.64 mL
- k10 ([4]; rat, i.v. 20 mg/kg): 0.0218 min⁻¹
- k12 ([4]; rat, i.v. 20 mg/kg): 0.0453 min⁻¹
- k21 ([4]; rat, i.v. 20 mg/kg): 0.0551 min⁻¹
- AUC(0-inf) [5, 11]: 8.4 µg·h/mL
- Cmax [5, 11]: 5.12 µg/mL
- MRT inf [5, 11]: 1.62 h
- Tmax [5, 11]: 0.333 h
- F∞ ([5]; rat): 84.9%
- AUC(0-inf) [6, 12]: 7 µg·h/mL
- Cmax [6, 12]: 3.07 µg/mL
- MRT inf [6, 12]: 1.89 h
- Tmax [6, 12]: 1 h
- F∞ ([6]; i.d. 20 mg/kg): 70.8%
- Cmax ([7]; male, Wistar, inhaled or intranasal, rat CSF, i.n. 20 mg/kg, read-out: Cmax (maximum CSF concentration)): 4.02 µg/mL
- Tmax ([7]; male, Wistar, inhaled or intranasal, rat CSF, i.n. 20 mg/kg, read-out: Tmax (time-to-maximum CSF concentration) (converted)): 0.333 h
- AUC ([7]; male, Wistar, inhaled or intranasal, rat plasma, i.n. 20 mg/kg, read-out: AUCPlasma (converted)): 8.4 µg·h/mL
- AUC ([7]; male, Wistar, rat, 20 mg/kg): 7 µg·h/mL
- Cmax ([7]; male, Wistar, rat, 20 mg/kg): 1.01 µg/mL
- Tmax ([7]; male, Wistar, rat, 20 mg/kg): 1 h
- ratio of plasma concentration and CSF concentration ([7]; male, Wistar, rat, 20 mg/kg): significantly increased up to 30 minutes after administration
- AUC [7, 13]: 9.89 µg·h/mL
- AUCCSF [7, 13]: 13727.9 ng·min/mL
- Cmax [7, 13]: 2.22 µg/mL
- Tmax [7, 13]: 0.167 h
- Kp ([7]; male, Wistar, rat, iv, 20 mg/kg, Kpu (brain transfer ratio)): 0.028
- CSF Cmax in intranasal administration relative to intraduodenal administration ([7]; rat, 20 mg/kg): four times larger than that in intraduodenal administration
- CSF Cmax in intranasal administration relative to intravenous administration ([7]; rat, 20 mg/kg): twice larger than that in intravenous administration
- ratio of plasma concentration and CSF concentration ([7]; rat, 20 mg/kg): almost constant
